Measurements taken from patent publication US11319299B2, “Substituted carboxamides as inhibitors of WDR5 protein-protein binding” (PROPELLON THERAPEUTICS INC., priority 2016, dated 2022).

The molecules below were run against WDR5 (Homo sapiens (Human), UniProt P61964) (assay: Surface Plasmon Resonance (SPR) assay, KD and residence time). Conditions: surface plasmon resonance (SPR) assay; read-out: WDR5 binding affinity (KD).
Format: binding
`C[C@@H]1CN(c2cc(F)c(C3CN=C(N4CCOCC4)NC3)cc2NC(=O)c2c[nH]c(=O)cc2C(F)(F)F)C[C@H](C)N1C` (stereo partly drawn) [Example 339, N-[4-fluoro-5-(2-morpholin-4-yl-1,4,5,6-tetrahydropyrimidin-5-yl)-2-[(3R,5S)-3,4,5-trimethylpiperazin-1-yl]phenyl]-6-oxo-4-(trifluoromethyl)-1H-pyridine-3-carboxamide] was tested, and the Kd was 275 nM. Work on `C[C@@H]1CN(c2ncc(-c3cc(NC(=O)c4c[nH]c(=O)cc4C(F)(F)F)c(N4CCN(C)[C@@H](C)C4)cc3F)cn2)CCO1` [Example 340, N-[4-fluoro-2-[(3S)-3,4-dimethylpiperazin-1-yl]-5-[2-[(2R)-2-methylmorpholin-4-yl]pyrimidin-5-yl]phenyl]-6-oxo-4-(trifluoromethyl)-1H-pyridine-3-carboxamide] yielded a Kd of 0.551 nM. `C[C@@H]1CN(c2cc(F)c(-c3cnc(N4CCOCC4)nc3)cc2NC(=O)c2cn(C)c(=O)cc2C(F)F)C[C@H](C)N1C` [Example 342, 4-(difluoromethyl)-N-[4-fluoro-5-(2-morpholin-4-ylpyrimidin-5-yl)-2-[(3R,5S)-3,4,5-trimethylpiperazin-1-yl]phenyl]-1-methyl-6-oxopyridine-3-carboxamide] was tested, and the Kd was 6.87 nM. With `CCN(C)[C@@H]1CN(c2cc(F)c(-c3cnc(N4CCOCC4)nc3)cc2NC(=O)c2c[nH]c(=O)cc2C(F)(F)F)C[C@H]1F` [Example 344, N-[4-fluoro-5-(2-morpholin-4-ylpyrimidin-5-yl)-2-[(3R,4R)-3-[ethyl(methyl)amino]-4-fluoropyrrolidin-1-yl]phenyl]-6-oxo-4-(trifluoromethyl)-1H-pyridine-3-carboxamide] the Kd was 12.4 nM. `CCN(C)[C@@H]1CCN(c2cc(F)c(-c3cnc(N4CCOCC4)nc3)cc2NC(=O)c2c[nH]c(=O)cc2C(F)(F)F)C1` [Example 345, N-[4-fluoro-5-(2-morpholin-4-ylpyrimidin-5-yl)-2-[(3R)-3-[ethyl(methyl)amino]pyrrolidin-1-yl]phenyl]-6-oxo-4-(trifluoromethyl)-1H-pyridine-3-carboxamide] showed a Kd of 1.2 nM. `C[C@@H]1CN(c2cc(F)c(-c3cnc(N4CCOC(C)(C)C4)nc3)cc2NC(=O)c2c[nH]c(=O)cc2C(F)(F)F)C[C@H](C)N1C` [Example 350, N-[5-[2-(2,2-dimethylmorpholin-4-yl)pyrimidin-5-yl]-4-fluoro-2-[(3R,5S)-3,4,5-trimethylpiperazin-1-yl]phenyl]-6-oxo-4-(trifluoromethyl)-1H-pyridine-3-carboxamide] was tested, and the Kd was 1.42 nM. `C[C@@H]1CN(c2cc(F)c(-c3cnc(N4C5CCC4CC5)nc3)cc2NC(=O)c2c[nH]c(=O)cc2C(F)(F)F)C[C@H](C)N1C` [Example 352, N-[5-[2-(7-azabicyclo[2.2.1]heptan-7-yl)pyrimidin-5-yl]-4-fluoro-2-[(3R,5S)-3,4,5-trimethylpiperazin-1-yl]phenyl]-6-oxo-4-(trifluoromethyl)-1H-pyridine-3-carboxamide] gave a Kd of 2.73 nM. `C[C@@H]1CN(c2cc(F)c(-c3cnc(N4CCOCC4)nc3)cc2NC(=O)c2ccc(F)cc2C(F)(F)F)C[C@H](C)N1` [Example 364, 4-fluoro-N-[4-fluoro-5-(2-morpholin-4-ylpyrimidin-5-yl)-2-[(3R,5S)-3,5-dimethylpiperazin-1-yl]phenyl]-2-(trifluoromethyl)benzamide] was tested, and the Kd was 5.87 nM. With `COc1cc(N2CCC=C(c3cc(NC(=O)c4c[nH]c(=O)cc4C(F)(F)F)c(N4C[C@@H](C)N(C)[C@@H](C)C4)cc3F)C2)ncn1` [Example 365, N-[4-fluoro-5-[1-(6-methoxypyrimidin-4-yl)-3,6-dihydro-2H-pyridin-5-yl]-2-[(3R,5S)-3,4,5-trimethylpiperazin-1-yl]phenyl]-6-oxo-4-(trifluoromethyl)-1H-pyridine-3-carboxamide] the Kd was 0.246 nM. Work on `COc1cnc(N2CC=C(c3cc(NC(=O)c4c[nH]c(=O)cc4C(F)(F)F)c(N4C[C@@H](C)N(C)[C@@H](C)C4)cc3F)CC2)nc1` [Example 366, N-[4-fluoro-5-[1-(5-methoxypyrimidin-2-yl)-3,6-dihydro-2H-pyridin-4-yl]-2-[(3R,5S)-3,4,5-trimethylpiperazin-1-yl]phenyl]-6-oxo-4-(trifluoromethyl)-1H-pyridine-3-carboxamide] yielded a Kd of 1.76 nM. For `C[C@@H]1CN(c2cc(F)c(C3=CCN(c4ncc(F)cn4)CC3)cc2NC(=O)c2c[nH]c(=O)cc2C(F)(F)F)C[C@H](C)N1C` [Example 367, N-[4-fluoro-5-[1-(5-fluoropyrimidin-2-yl)-3,6-dihydro-2H-pyridin-4-yl]-2-[(3R,5S)-3,4,5-trimethylpiperazin-1-yl]phenyl]-6-oxo-4-(trifluoromethyl)-1H-pyridine-3-carboxamide], the Kd was 1.04 nM. `Cc1cc(C)nc(N2CC=C(c3cc(NC(=O)c4c[nH]c(=O)cc4C(F)(F)F)c(N4C[C@@H](C)N(C)[C@@H](C)C4)cc3F)CC2)n1` [Example 368, N-[5-[1-(4,6-dimethylpyrimidin-2-yl)-3,6-dihydro-2H-pyridin-4-yl]-4-fluoro-2-[(3R,5S)-3,4,5-trimethylpiperazin-1-yl]phenyl]-6-oxo-4-(trifluoromethyl)-1H-pyridine-3-carboxamide] was tested, and the Kd was 2.3 nM. For `C[C@@H]1CN(c2cc(F)c(C3=CCN(c4ncc(C=O)cn4)CC3)cc2NC(=O)c2c[nH]c(=O)cc2C(F)(F)F)C[C@H](C)N1C` [Example 369, N-[4-fluoro-5-[1-(5-formylpyrimidin-2-yl)-3,6-dihydro-2H-pyridin-4-yl]-2-[(3R,5S)-3,4,5-trimethylpiperazin-1-yl]phenyl]-6-oxo-4-(trifluoromethyl)-1H-pyridine-3-carboxamide], the Kd was 0.685 nM. With `C[C@@H]1CN(c2cc(F)c(-c3cnc(N(C)C4CCOCC4)nc3)cc2NC(=O)c2c[nH]c(=O)cc2C(F)(F)F)C[C@H](C)N1C` [Example 371, N-[4-fluoro-5-[2-[methyl(oxan-4-yl)amino]pyrimidin-5-yl]-2-[(3R,5S)-3,4,5-trimethylpiperazin-1-yl]phenyl]-6-oxo-4-(trifluoromethyl)-1H-pyridine-3-carboxamide] the Kd was 0.59 nM. Work on `C[C@@H]1CN(c2cc(F)c(C3=CCCN(C(=O)N(C)C)C3)cc2NC(=O)c2c[nH]c(=O)cc2C(F)(F)F)C[C@H](C)N1C` [Example 372, N-[5-[1-(dimethylcarbamoyl)-3,6-dihydro-2H-pyridin-5-yl]-4-fluoro-2-[(3R,5S)-3,4,5-trimethylpiperazin-1-yl]phenyl]-6-oxo-4-(trifluoromethyl)-1H-pyridine-3-carboxamide] yielded a Kd of 1.75 nM. `C[C@@H]1CN(c2cc(F)c(C3=CCCN(C(=O)N4CCCC4)C3)cc2NC(=O)c2c[nH]c(=O)cc2C(F)(F)F)C[C@H](C)N1C` [Example 374, N-[4-fluoro-5-[1-(pyrrolidine-1-carbonyl)-3,6-dihydro-2H-pyridin-5-yl]-2-[(3R,5S)-3,4,5-trimethylpiperazin-1-yl]phenyl]-6-oxo-4-(trifluoromethyl)-1H-pyridine-3-carboxamide] was tested, and the Kd was 1.15 nM. `COc1cnc(N2CCC=C(c3cc(NC(=O)c4c[nH]c(=O)cc4C(F)(F)F)c(N4C[C@@H](C)N(C)[C@@H](C)C4)cc3F)C2)nc1` [Example 375, N-[4-fluoro-5-[1-(5-methoxypyrimidin-2-yl)-3,6-dihydro-2H-pyridin-5-yl]-2-[(3R,5S)-3,4,5-trimethylpiperazin-1-yl]phenyl]-6-oxo-4-(trifluoromethyl)-1H-pyridine-3-carboxamide] gave a Kd of 0.688 nM. Molecule `Cc1cnc(N2CCC=C(c3cc(NC(=O)c4c[nH]c(=O)cc4C(F)(F)F)c(N4C[C@@H](C)N(C)[C@@H](C)C4)cc3F)C2)nc1` [Example 376, N-[4-fluoro-5-[1-(5-methylpyrimidin-2-yl)-3,6-dihydro-2H-pyridin-5-yl]-2-[(3R,5S)-3,4,5-trimethylpiperazin-1-yl]phenyl]-6-oxo-4-(trifluoromethyl)-1H-pyridine-3-carboxamide] has a Kd of 0.673 nM. `C[C@@H]1CN(c2cc(F)c(C3=CCCN(c4ncc(F)cn4)C3)cc2NC(=O)c2c[nH]c(=O)cc2C(F)(F)F)C[C@H](C)N1C` [Example 377, N-[4-fluoro-5-[1-(5-fluoropyrimidin-2-yl)-3,6-dihydro-2H-pyridin-5-yl]-2-[(3R,5S)-3,4,5-trimethylpiperazin-1-yl]phenyl]-6-oxo-4-(trifluoromethyl)-1H-pyridine-3-carboxamide] was tested, and the Kd was 1.3 nM. With `C[C@@H]1CN(c2cc(F)c(-c3cnc(N4CCN(C)CC4)nc3)cc2NC(=O)c2ccc(F)cc2C(F)(F)F)C[C@H](C)N1C` [Example 379, 4-fluoro-N-[4-fluoro-5-[2-(4-methylpiperazin-1-yl)pyrimidin-5-yl]-2-[(3R,5S)-3,4,5-trimethylpiperazin-1-yl]phenyl]-2-(trifluoromethyl)benzamide] the Kd was 0.933 nM. `C[C@@H]1CN(c2cc(F)c(-c3cnc(N(C)C)nc3)cc2NC(=O)c2ccc(F)cc2C(F)(F)F)C[C@H](C)N1C` [Example 380, N-[5-[2-(dimethylamino)pyrimidin-5-yl]-4-fluoro-2-[(3R,5S)-3,4,5-trimethylpiperazin-1-yl]phenyl]-4-fluoro-2-(trifluoromethyl)benzamide] showed a Kd of 1.7 nM. `C[C@@H]1CN(c2ncc(-c3cc(NC(=O)c4ccc(F)cc4C(F)(F)F)c(N4C[C@@H](C)N(C)[C@@H](C)C4)cc3F)cn2)C[C@H](C)N1C` [Example 381, 4-fluoro-N-[4-fluoro-2-[(3R,5S)-3,4,5-trimethylpiperazin-1-yl]-5-[2-[(3R,5S)-3,4,5-trimethylpiperazin-1-yl]pyrimidin-5-yl]phenyl]-2-(trifluoromethyl)benzamide] showed a Kd of 0.31 nM. `C[C@@H]1CN(c2cc(F)c(-c3ccc(N4CCOCC4)nn3)cc2NC(=O)c2c[nH]c(=O)cc2C(F)(F)F)C[C@H](C)N1C` [Example 384, N-[4-fluoro-5-(6-morpholin-4-ylpyridazin-3-yl)-2-[(3R,5S)-3,4,5-trimethylpiperazin-1-yl]phenyl]-6-oxo-4-(trifluoromethyl)-1H-pyridine-3-carboxamide] was tested, and the Kd was 1.53 nM. `C[C@@H]1CN(c2ncc(-c3cc(NC(=O)c4c[nH]c(=O)cc4C(F)F)c(N4C[C@@H](C)N(C)[C@@H](C)C4)cc3F)cn2)C[C@H](C)O1` [Example 385, 4-(difluoromethyl)-N-[4-fluoro-5-[2-[(2R,6S)-2,6-dimethylmorpholin-4-yl]pyrimidin-5-yl]-2-[(3S,5R)-3,4,5-trimethylpiperazin-1-yl]phenyl]-6-oxo-1H-pyridine-3-carboxamide] gave a Kd of 0.72 nM.
